According to patent US9624215B2, “Amine derivative or salt thereof” (TOYAMA CHEMICAL CO., LTD., priority 2012, dated 2017):

Legend:
[1] = tested on: TNFα production in LPS-stimulated Raw264.7 cells; experiment: TNFα production inhibition test; assay type: cell-based; settings: Mus musculus, test compound 1 μmol/L, LPS 1 μg/mL, 16 hours, ELISA, read-out: Inhibition rate of TNFα production
Method: 7×10^4 mouse macrophage-derived cell line Raw264.7 cells were suspended in 100 μL of RPMI1640 medium containing 10% fetal bovine serum, plated in a 96-well plate and incubated overnight. The culture supernatant was removed and the test compound diluted in RPMI1640 medium containing 1% fetal bovine serum (final concentration: 1 μmol/L) was added. One hour after the addition, LPS (B4:0111) (Sigma-Aldrich, L2630) was added to a final concentration of 1 μg/mL. 16 hours after the stimulation, the culture supernatant was collected and the amount of TNFα produced in the culture supernatant was determined using ELISA kit (R&D Systems, MTA00B).
The inhibition rate was calculated from the following formula. Inhibition rate (%)=100−(amount of TNFα produced in the presence of test compound/amount of TNFα produced in the absence of test compound)×100

[2] = tested on: normal human neonatal foreskin epidermal keratinocytes (NHEK-F); experiment: Cell proliferation inhibition test; assay type: cell-based; settings: Keratinocyte, 72 h, NHEK-F cells, three days incubation, ATPlite or CellTiterGlo, read-out: IC50 (concentration of the compound at which the cell count is reduced by 50%)
In short: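 NHEK-F keratinocytes, 2×10^3 per well in Humedia-EG2, plated overnight, then exposed to compound for three days. Cell count by ATPlite or CellTiterGlo luminescence; inhibition = 100 − (treated/untreated count)×100, IC50 as 50% reduction concentration.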

[3] = tested on: TPA-induced ear edema and acanthosis in Balb/c mice; experiment: Mouse TPA-induced ear-swelling model; assay type: in vivo; settings: topical, 240 h, 1% w/v solution, 20 μL applied to ear once a day from day 0 to day 9, female Balb/c mice, read-out: Inhibition rate of change in ear thickness on day 10
In short: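 Female Balb/c mice, 7 weeks old; 20 ng/mL TPA in 5% DMSO/acetone applied to outer ear on days 0, 2, 4, 7, 9. Test compound at 1% w/v topically once daily days 0-9, vehicle control. Inhibition rate from day 10 minus day 0 ear-thickness change versus control.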

SMILES | inhibition at 1 µM [1] | IC50 [2] | inhibition in vivo at 1 % strength [3]
O=C(O)c1cc(C2CC2)cnc1Nc1ccc2c(ccn2-c2ccccc2)c1 [Example 39, 5-cyclopropyl-2-((1-phenyl-1H-indol-5-yl)amino)nicotinic acid] | ≥ 50% | ≤ 0.01 µM | ≥ 20%
O=C(O)c1nc(C2CC2)cnc1Nc1ccc2c(ccn2Cc2ccccc2)c1 [Example 71, 3-((1-benzyl-1H-indol-5-yl)amino)-6-cyclopropylpyrazine-2-carboxylic acid] | ≥ 50% | ≤ 0.01 µM | ≥ 20%
O=C(O)c1cc(C2CC2)cnc1Nc1ccc2c(c1)sc(=O)n2Cc1ccccc1 [Example 75, 2-((3-benzyl-2-oxo-2,3-dihydrobenzo[d]thiazol-6-yl)amino)-5-cyclopropylnicotinic acid] | ≥ 50% | ≤ 0.01 µM | ≥ 20%
O=C(O)c1cc(Cl)cnc1Nc1ccc2c(ccn2Cc2ccccc2)c1 [Example 90, 2-((1-benzyl-1H-indol-5-yl)amino)-5-chloronicotinic acid] | ≥ 50% | 0.01 to 0.1 µM | ≥ 20%
O=C(O)c1cc(C2CC2)ccc1Nc1ccc2c(ccn2Cc2ccccc2)c1 [Example 94, 2-((1-benzyl-1H-indol-5-yl)amino)-5-cyclopropylbenzoic acid] | ≥ 50% | ≤ 0.01 µM | ≥ 20%
O=C(O)c1cc(Cl)ccc1Nc1cccc2c1ccn2-c1ccccc1 [Example 275, 5-chloro-2-((1-phenyl-1H-indol-4-yl)amino)benzoic acid] | ≥ 50% | ≤ 0.01 µM | ≥ 20%
